The test system of test [1] is HCV replicon (BB7 sequence) in Huh-7-Clone A cells. The test can be described thus: HCV replicon assay: ELISA of NS5A protein in replicon-containing cells (Inhibition of Viral RNA Replication). Format: cell-based. As to conditions: read-out: Replicon. The essentials: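 EC50 taken from an 8-point serially diluted dose curve, with NS5A level as read-out: fixed cells probed with primary monoclonal and HRP-conjugated secondary, TMB developed 30 min, OD 650 nm. Compound exposure 72 h in Huh-7-Clone A replicon cells (BB7 sequence).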
(In general: A replicon is a self-replicating genome or part of one, used to study replication in cells.)

For the next test, the target named is T1, HCV NS5B (Hepatitis C virus genotype 1b, UniProt Q9WMX2).
T1 construct: fusion protein, of which the carboxyl terminal 21 amino acids were removed to enhance its solubility; His tag (GSHHHHHH); made in house; host or cells: E. coli
The test can be described thus: Inhibition of viral RNA-dependent RNA polymerase (RdRp), in vitro biochemical assay. Also on record: species or system HCV genotype 1b virus (BB7). As to conditions: read-out: HCV pol-BB7 IC50. The essentials: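 IC50 values are the concentrations that halve in vitro RNA synthesis by HCV NS5B polymerase. The enzyme was a C-terminally truncated (Δ21), His-tagged genotype 1b (BB7 consensus) protein purified from E. coli.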

The mark [2] stands for this setting: Hepatitis C virus, HCV replicon, range of EC50.
Setting [3] is: HCV NS5B RdRp, BB7, reported as range class.
The mark [4] stands for this setting: Hepatitis C virus, HCV replicon assay, ranges of EC50.
Where [5] appears, read: HCV NS5B RdRp, BB7, class symbols A-D.
Setting [6] is: HCV replicon assay, ranges of EC50.
Setting [7] is: HCV NS5B RdRp, BB7, activity class.
[8] abbreviates: Hepatitis C virus, HCV replicon assay, ranges of 50% effective concentration (EC50).
The mark [9] stands for this setting: HCV NS5B polymerase, BB7 (genotype 1b), values given as range classes A-D.
Setting [10] is: Hepatitis C virus, Huh-7-Clone A, NS5A ELISA, 72-hour incubation, ranges of EC50.
Setting [11] is: purified His-tagged NS5B (BB7), carboxyl terminal 21 amino acids removed.
Where [12] appears, read: Hepatitis C virus, ranges of EC50 in HCV replicon assay.

pEC50, pIC50: −log10 of the molar value. Where two headings read alike, the source gives them in different places.

As usually defined, the pIC50 is the negative decadic logarithm of the IC50, by convention in mol/L. As to `CNC(=O)c1c(-c2ccc(F)cc2)oc2cc(N3CCOCC3)c(OCc3noc(C(C)(C)C)n3)cc12` [Example 204, 5-(5-tert-Butyl-[1,2,4]oxadiazol-3-ylmethoxy)-2-(4-fluoro-phenyl)-6-morpholin-4-yl-benzofuran-3-carboxylic acid methylamide], the pEC50 in test [1] (setting [2]) is more than 6.00. For the same compound, the pIC50 at HCV NS5B (setting [3]) was not below 6.30.

Take `CNC(=O)c1c(-c2ccc(F)cc2)oc2cc(-c3c(C)nn(C)c3C)c(OC(C)C)cc12` [Example 264, 2-(4-Fluoro-phenyl)-5-isopropoxy-6-(1,3,5-trimethyl-1H-pyrazol-4-yl)-benzofuran-3-carboxylic acid methylamide]: the pEC50 in test [1] (setting [4]) is more than 5.00. At HCV NS5B (setting [5]), the pIC50 was 5.30 to 6.30.

In the case of “2-(4-Fluoro-phenyl)-5-hydroxy-6-[methanesulfonyl-(2-oxo-propyl)-amino]-benzofuran-3-carboxylic acid methylamide [Example 354]”, the pEC50 in test [1] (setting [6]) was more than 5.00. For the same compound, the pIC50 on HCV NS5B (setting [7]) was 5.30 to 6.30.

Turning to `CNC(=O)c1c(-c2ccc(F)cc2)oc2cc(-c3c(C)noc3C)c(O)cc12` [Example 314, 6-(3,5-Dimethyl-isoxazol-4-yl)-2-(4-fluoro-phenyl)-5-hydroxy-benzofuran-3-carboxylic acid methylamide], in test [1] (setting [4]), the pEC50 was more than 6.00. Further, the pIC50 at HCV NS5B (setting [5]) was not below 6.30.

As to `CNC(=O)c1c(-c2ccc(F)cc2)oc2cc(-c3c(C)noc3C)c(OCc3c(C)noc3C)cc12` [Example 429, 6-(3,5-Dimethyl-isoxazol-4-yl)-5-(3,5-dimethyl-isoxazol-4-ylmethoxy)-2-(4-fluoro-phenyl)-benzofuran-3-carboxylic acid methylamide], the pEC50 in test [1] (setting [8]) is more than 6.00. Also, the pIC50 at HCV NS5B (setting [9]) is not below 6.30.

Turning to `CNC(=O)c1c(-c2ccc(F)cc2)oc2cc(N(C)S(C)(=O)=O)c(OCc3nnnn3C)cc12` [Example 371, 2-(4-Fluoro-phenyl)-6-(methanesulfonyl-methyl-amino)-5-(1-methyl-1H-tetrazol-5-ylmethoxy)-benzofuran-3-carboxylic acid methylamide], the pEC50 in test [1] (setting [4]) was more than 6.00. Further, the pIC50 on HCV NS5B (setting [7]) is not below 6.30.

Take `CNC(=O)c1c(-c2ccc(F)cc2)oc2cc(C(C)=O)c(OC(C)C)cc12` [Example 196, 6-Acetyl-2-(4-fluoro-phenyl)-5-isopropoxy-benzofuran-3-carboxylic acid methyladime]: the pEC50 in test [1] (setting [2]) is more than 6.00. The pIC50 at HCV NS5B (setting [3]) is not below 6.30.

Consider `CNC(=O)c1c(-c2ccc(F)cc2)oc2cc(C3CNC(=O)O3)c(OC)cc12` (stereo not shown) [Example 48, 2-(4-Fluoro-phenyl)-5-methoxy-6-(2-oxo-oxazolidin-5-yl)-benzofuran-3-carboxylic acid methylamide], for which, in test [1] (setting [10]), the pEC50 is more than 5.00. Besides, the pIC50 at HCV NS5B (setting [11]) is not below 6.30.

In the case of `CNC(=O)c1c(-c2ccc(F)cc2)oc2cc(-c3ccco3)c(OC(C)C)cc12` [Example 151, 2-(4-Fluoro-phenyl)-6-furan-2-yl-5-isopropoxy-benzofuran-3-carboxylic acid methylamide], in test [1] (setting [12]), the pEC50 was more than 4.52. Also, on HCV NS5B (HCV NS5B RdRp, BB7 genotype 1b), the pIC50 is not below 6.30.

Take `COc1cc2c(C(=O)NC(C)C)c(-c3ccc(F)cc3)oc2cc1-c1c(C)noc1C` [Example 379, 6-(3,5-Dimethyl-isoxazol-4-yl)-2-(4-fluoro-phenyl)-5-methoxy-benzofuran-3-carboxylic acid isopropylamide]: in test [1] (setting [4]), the pEC50 was less than 4.52. Also, at HCV NS5B (setting [7]), the pIC50 is 5.30 to 6.30.

Turning to `CNC(=O)c1c(-c2ccc(F)cc2)oc2cc(-c3ccc[nH]3)c(OC(C)C)cc12` [Example 220, 2-(4-Fluoro-phenyl)-5-isopropoxy-6-(1H-pyrrol-2-yl)-benzofuran-3-carboxylic acid methylamide], in test [1] (setting [2]), the pEC50 was more than 5.00. Moreover, the pIC50 at HCV NS5B (setting [3]) is not below 6.30.

With `CNC(=O)c1c(-c2ccc(F)cc2)oc2cc(N(C)S(C)(=O)=O)c(C3CC3)cc12` [Example 437, 5-Cyclopropyl-2-(4-fluoro-phenyl)-6-(methanesulfonyl-methyl-amino)-benzofuran-3-carboxylic acid methylamide], the pEC50 in test [1] (setting [4]) is more than 6.00. In addition, at HCV NS5B (HCV NS5B RdRp, BB7 (genotype 1b), reported as class symbols), the pIC50 is not below 6.30.

Take `CNC(=O)c1c(-c2ccc(F)cc2)oc2cc(N3CCOCC3)c(OCCCl)cc12` [Example 180, 5-(2-Chloro-ethoxy)-2-(4-fluoro-phenyl)-6-morpholin-4-yl-benzofuran-3-carboxylic acid methylamide]: the pEC50 in test [1] (setting [2]) is less than 4.52. At HCV NS5B (setting [3]), the pIC50 is not below 6.30.

In the case of `CNC(=O)c1c(-c2ccc(F)cc2)oc2cc(N(C)CCOC)c(OC(C)C)cc12` [Example 119, 2-(4-Fluoro-phenyl)-5-isopropoxy-6-[(2-methoxy-ethyl)-methyl-amino]-benzofuran-3-carboxylic acid methylamide], the pEC50 in test [1] (setting [12]) is more than 6.00. For the same compound, at HCV NS5B (HCV NS5B RdRp, BB7 genotype 1b), the pIC50 is not below 6.30.

Take `CNC(=O)c1c(-c2ccc(F)cc2)oc2cc(N(C3CCC3)S(C)(=O)=O)c(OC(C)C)cc12` [Example 190, 6-(Cyclobutyl-methanesulfonyl-amino)-2-(4-fluoro-phenyl)-5-isopropoxy-benzofuran-3-carboxylic acid methylamide]: in test [1] (setting [2]), the pEC50 is more than 6.00. Moreover, on HCV NS5B (setting [3]), the pIC50 is not below 6.30.

With “2-(4-Fluoro-phenyl)-5-methoxy-6-(2H-[1,2,4]triazol-3-yl)-benzofuran-3-carboxylic acid methylamide [Example 358]”, the pEC50 in test [1] (setting [6]) was more than 6.00. Further, on HCV NS5B (setting [7]), the negative-log IC50 (pIC50) was not below 6.30.

Regarding `CNC(=O)c1c(-c2ccc(F)cc2)oc2cc(S(=O)(=O)N3CCCC3)c(OC(C)C)cc12` [Example 154, 2-(4-Fluoro-phenyl)-5-isopropoxy-6-(pyrrolidine-1-sulfonyl)-benzofuran-3-carboxylic acid methylamide], the pEC50 in test [1] (setting [12]) was more than 5.00. Besides, the pIC50 at HCV NS5B (HCV NS5B RdRp, BB7 genotype 1b) was not below 6.30.

As for `CNC(=O)c1c(-c2ccc(F)cc2)oc2cc(O)c(O)cc12` [Example 192, 2-(4-Fluoro-phenyl)-5,6-dihydroxy-benzofuran-3-carboxylic acid methylamide], the pEC50 in test [1] (setting [2]) was less than 4.52. Besides, the pIC50 on HCV NS5B (setting [3]) was 4.52 to 5.30.

With “2-(4-Fluoro-phenyl)-5-methoxy-6-(5-methyl-[1,3,4]oxadiazol-2-yl)-benzofuran-3-carboxylic acid methylamide [Example 430]”, the pEC50 in test [1] (HCV replicon assay, ranges of 50% effective concentration (EC50)) is more than 5.00. Moreover, the pIC50 on HCV NS5B (setting [9]) was not below 6.30.

Take `CCN(c1cc2oc(-c3ccc(F)cc3)c(C(=O)NC)c2cc1O)S(C)(=O)=O` [Example 297, 6-(Ethyl-methanesulfonyl-amino)-2-(4-fluoro-phenyl)-5-hydroxy-benzofuran-3-carboxylic acid methylamide]: the pEC50 in test [1] (setting [4]) is more than 5.00. Further, on HCV NS5B (setting [5]), the pIC50 is not below 6.30.

For `CNC(=O)c1c(-c2ccc(F)cc2)oc2cc(N(C)S(C)(=O)=O)c(OCC(=O)c3ccc(F)cc3)cc12` [Example 360, 2-(4-Fluoro-phenyl)-5-[2-(4-fluoro-phenyl)-2-oxo-ethoxy]-6-(methanesulfonyl-methyl-amino)-benzofuran-3-carboxylic acid methylamide], the pEC50 in test [1] (setting [4]) is more than 6.00. For the same compound, the pIC50 at HCV NS5B (setting [7]) is not below 6.30.

Turning to `CNC(=O)c1c(-c2ccc(F)cc2)oc2cc(NS(C)(=O)=O)c(C3CC3)cc12` [Example 418, 5-Cyclopropyl-2-(4-fluoro-phenyl)-6-methanesulfonylamino-benzofuran-3-carboxylic acid methylamide], in test [1] (setting [8]), the pEC50 was more than 6.00. Moreover, on HCV NS5B (setting [9]), the pIC50 is not below 6.30.

For the compound `CNC(=O)c1c(-c2ccc(F)cc2)oc2cc(N3CCC(O)CC3)c(OC(C)C)cc12` [Example 140, 2-(4-Fluoro-phenyl)-6-(4-hydroxy-piperidin-1-yl)-5-isopropoxy-benzofuran-3-carboxylic acid methylamide], the pEC50 in test [1] (setting [12]) was more than 5.00. The pIC50 at HCV NS5B (HCV NS5B RdRp, BB7 genotype 1b) is 5.30 to 6.30.

Turning to `CNC(=O)c1c(-c2ccc(F)cc2)oc2cc(C(C)=O)c(C)cc12` [Example 301, 6-Acetyl-2-(4-fluoro-phenyl)-5-methyl-benzofuran-3-carboxylic acid methylamide], in test [1] (setting [4]), the pEC50 was more than 5.00. In addition, on HCV NS5B (setting [5]), the pIC50 is not below 6.30.

Turning to `CNC(=O)c1c(-c2ccc(F)cc2)oc2cc(N(C)S(C)(=O)=O)c(OC)cc12` [Example 29, 2-(4-Fluoro-phenyl)-6-(methanesulfonyl-methyl-amino)-5-methoxy-benzofuran-3-carboxylic acid methylamide], the pEC50 in test [1] (setting [10]) is more than 6.00. Moreover, the pIC50 at HCV NS5B (setting [11]) is not below 6.30.

As for `CNC(=O)c1c(-c2ccc(F)cc2)oc2cc(C3(C)CNC(=O)O3)c(OC(C)C)cc12` (stereo not shown) [Example 381, 2-(4-Fluoro-phenyl)-5-isopropoxy-6-(5-methyl-2-oxo-oxazolidin-5-yl)-benzofuran-3-carboxylic acid methylamide], the pEC50 in test [1] (setting [4]) was more than 6.00. In addition, the pIC50 on HCV NS5B (setting [7]) was not below 6.30.

These data come from US7265152B2 (ViroPharma Incorporated, priority 2002, dated 2007).
